# From patent US11104883B2, “SC-beta cells and compositions and methods for generating the same” (President and Fellows of Harvard College, priority 2013, dated 2021)
# What was measured:
# SC-β cells [1] = assay: Anti-diabetic drug treatment of plated SC-β cells, secreted human insulin ELISA; assay type: cell-based; settings: 2 and 20 mM glucose
# Protocol: FIG. 16A is a schematic illustration of the utility of SC-β cells for treating diabetes or screening drugs to improve function or replication. FIG. 16B is a table listing diabetic drugs investigated and their general therapeutic category. FIG. 16C is a graph showing ELISA measurements of secreted human insulin from plated SC-β cells treated with the indicated drugs in 2 and 20 mM glucose. Indicated p values compare the insulin value in 20 mM glucose between the drug and the control. FIG. 16D is an immunofluorescence image of dispersed and plated SC-β cells stained with DAPI (blue), C-peptide (green), and Ki67 (red) without treatment. FIG. 16E is an immunofluorescence image of dispersed and plated SC-β cells stained with DAPI (blue), C-peptide (green), and Ki67 (red) treated with prolactin for 48 hours. […] FIG. 16G is a graph illustrating fasting blood glucose measurements of Akita mice transplanted with SC-β cells (n=6) or PH cells (n=6). *p<0.05 comparing the two cell groups on the same day. FIG. 16H is a graph illustrating blood glucose measurements from progressively diabetic Akita mice transplanted with SC-β cells or PH cells. Measurements were taken before (white bars) and 20 min after (black bars) a glucose injection of mice transplanted 2 weeks prior. Glucose measurements were saturated at 550 mg/dL. *p<0.05 comparing the two cell groups at the same time post glucose injection. FIG. 16I is a graph showing ELISA measurements of human insulin from the serum of Akita mice 20 min after a glucose injection. Mice were challenged with glucose 2 weeks post transplantation. *p<0.05 comparing the two cell groups. Scale bar-50 μm.
# The inventors first tested whether SC-β cells could respond to existing anti-diabetic drugs from several different classes (FIG. 16B). LY2608204 is glucokinase activator in clinical trials while liraglutide, tolbutamide, and nateglinide are examples of GLP-1 agonists and secretagogues (sulfonylureas and meglitinides), respectively, that have been used clinically (Matschinsky, 2009; Modi, 2007; Vetere et al., 2014).
# cells in Steps 3-6 = assay: Modified differentiation protocol (Steps 3-6): cell survival and marker-positive populations; assay type: cell-based, human; settings: for cell survival: Steps 3-5
# Source text: FIG. 15A is a schematic illustration of the protocol.
# One challenge for the stem cell field has been generating a sufficient quantity of SC-β cells that can be useful for drug screening, disease modeling, or therapeutic use. For example, hES cells are technically difficult to culture, are vulnerable to apoptosis upon cellular detachment and dissociation, undergo massive cell death particularly after complete dissociation, and have low cloning efficiency. (Watanabe, K. et al., Nature Biotechnology 25, 681-686 (2007)). As a result, the quantity of viable SC-β cells yielded may be low. By modify the protocol between Steps 3 and 6 in the manner shown in FIG. 15A, more pure NKX6.1+ endocrine clusters can be generated (FIG. 15B) leading to more SC-β cells that can be therapeutically useful.
# In Steps 3-5, for instance, cell survival can be improved by adding a rho-associated protein kinase inhibitor, or a Rock inhibitor. It is believed that the addition of a Rock inhibitor enhances survival of ES cells by preventing dissociation-induced apoptosis thus increasing their cloning efficiency. (Watanabe et al.) Examples of Rock inhibitors include, but are not limited to, Y-27632, Fasudil/HA1077, and H-1152.
# In addition to treating the cells with a Rocki inhibitor, the cells in Steps 3-4 can be treated with ActivinA alone or in combination with Nicotinamide. […] Since SOX2 and NKX6-1 are mutually exclusive (FIG. 15E), down-regulation of SOX2 results in the up-regulation of NKX6-1, a marker for a mature pancreatic cell.
# In Steps 5-6, cell survival can further be enhanced by treating cells with staurosporine. Staurosporine is known to be an activator of neuronal, glial, and stem cell-like neurosphere differentiation and is also thought to induce apoptosis. (Schumacher, et al., Mol. Cell. Neurosci. 2003; 23(4): 669-680).
# Finally, cell survival can further be enhanced by treating cells with a culture medium containing Alk5i, T3 in combination with XXI, a γ-secretase inhibitor that improves β cell maturation.
# SC-β cells [2] = assay: GSIS of SC-β cells after additional factors in the last-step (Stage 6) media; assay type: cell-based, human; settings: factor added to CMRL media containing Alk5 inhibitor and T3 hormone; versus CMRL only, CMRL+Alk5i+T3, S3+Alk5i+T3
# Source text: To induce the in vitro maturation of at least some of the Pdx1-positive, NKX6-1-positive, insulin-positive endocrine cells into SC-β cells, the Pdx1-positive, NKX6-1-positive, insulin-positive endocrine cells are maintained in a suitable culture medium for a sufficient period of time. […] Adding additional factors to the CMRL media at the last step of differentiation (Stage 6) (FIG. 14A), however, was also found to generate a better glucose stimulated insulin secretion (GSIS) response by SC-β cells as measured by either stimulation index between high and low glucose challenges or by the amount of insulin released. Such additional factors may include, but are not limited to, Sant1, XXI, and SSP. The stimulation index, as calculated by the ratio of insulin secreted in high glucose (15 mM) to low glucose (2.5 mM), was greater for the SC-β cells maintained in a CMRL media containing Alk5 inhibitor, T3 hormone and either Sant1, XXI or SSP than those SC-β cells maintained in only CMRL media, CMRL media containing Alk5 inhibitor and T3 hormone, or S3 media containing Alk5 inhibitor and T3 hormone (FIG. 14B). Furthermore, the amount of insulin secreted was greater for the SC-β cells maintained in a CMRL media containing Alk5 inhibitor, T3 hormone and either Sant1, XXI or SSP than those SC-β cells maintained in only CMRL media, CMRL media containing Alk5 inhibitor and T3 hormone, or S3 media containing Alk5 inhibitor and T3 hormone (FIG. 14C).
# Alternatively, Days 21-35: CMRLS+10 μM Alk5i II+1 μM T3+Sant1.
# Alternatively, Days 21-35: CMRLS+10 μM Alk5i II+1 μM T3+XXI.
# Alternatively, Days 21-35: CMRLS+10 μM Alk5i II+1 μM T3+SSP.
# SC-β cells [3] = assay: β cell replication: C-peptide and Ki67 staining of plated SC-β cells; assay type: cell-based, human; settings: SC-β cells treated with prolactin for 48 hours
# Protocol: FIG. 16A is a schematic illustration of the utility of SC-β cells for treating diabetes or screening drugs to improve function or replication. FIG. 16B is a table listing diabetic drugs investigated and their general therapeutic category. FIG. 16C is a graph showing ELISA measurements of secreted human insulin from plated SC-β cells treated with the indicated drugs in 2 and 20 mM glucose. Indicated p values compare the insulin value in 20 mM glucose between the drug and the control. FIG. 16D is an immunofluorescence image of dispersed and plated SC-β cells stained with DAPI (blue), C-peptide (green), and Ki67 (red) without treatment. FIG. 16E is an immunofluorescence image of dispersed and plated SC-β cells stained with DAPI (blue), C-peptide (green), and Ki67 (red) treated with prolactin for 48 hours. […] FIG. 16G is a graph illustrating fasting blood glucose measurements of Akita mice transplanted with SC-β cells (n=6) or PH cells (n=6). *p<0.05 comparing the two cell groups on the same day. […]
# Cells were dispersed and plated onto 96 well plates. […] The percentage of target cell-types was quantified using the Array Scan Cellomics high-content screening system. Here 30 images were acquired per well and quantified. Cells labeled by antibody staining and total cell number (based on DAPI nuclei staining) were quantified to obtain percentages of target cell types.
molecule,measurement,setting,value
O=C(Nc1ncc(SCCN2CCCC2)s1)[C@]1(c2ccc(S(=O)(=O)C3CC3)cc2)C[C@H]1C1CCCCC1 [LY2608204],insulin secretion in vitro following a glucose challenge,SC-β cells [1],increasing insulin secretion
NC(=O)c1cccnc1 [Nicotinamide],cell survival,cells in Steps 3-6,improve cell survival
Cc1nn(-c2ccccc2)c(C)c1/C=N/N1CCN(Cc2ccccc2)CC1 [Sant1],amount of insulin secreted,SC-β cells [2],greater
same,"stimulation index, ratio of insulin secreted in high glucose (15 mM) to low glucose (2.5 mM)",SC-β cells [2],greater
C[C@H](NC(=O)Cc1cc(F)cc(F)c1)C(=O)N[C@H]1N=C(c2ccccc2)c2ccccc2N(C)C1=O [XXI],NeuroD1+ population,cells in Steps 3-6; added to medium with Alk5i and T3 at Steps 5 and 6,increase the NeuroD1+ population
same,amount of insulin secreted,SC-β cells [2],greater
same,"stimulation index, ratio of insulin secreted in high glucose (15 mM) to low glucose (2.5 mM)",SC-β cells [2],greater
CC(C)[C@H]1CC[C@H](C(=O)N[C@H](Cc2ccccc2)C(=O)O)CC1 [nateglinide],insulin secretion in vitro following a glucose challenge,SC-β cells [1],increasing insulin secretion
CN[C@@H]1C[C@H]2O[C@@](C)([C@@H]1OC)n1c3ccccc3c3c4c(c5c6ccccc6n2c5c31)C(=O)NC4 [staurosporine],percentage of ChromograninA,cells in Steps 3-6; Steps 5-6,increasing the percentage of ChromograninA
same,percentage of NKX6-1/C-peptide+ cells,cells in Steps 3-6; Steps 5-6,increasing the percentage of NKX6-1.C-peptide+ cells
CCCCNC(=O)NS(=O)(=O)c1ccc(C)cc1 [tolbutamide],insulin secretion in vitro following a glucose challenge,SC-β cells [1],increasing insulin secretion
"prolactin: hormone tested for β cell replication (protein, UniProt P01236 29-227, looked up) Prolactin: LPICPGGAARCQVTLRDLFDRAVVLSHYIHNLSSEMFSEFDKRYTHGRGFITKAINSCHTSSLATPEDKEQAQQMNQKDFLSLIVSILRSWNEPLYHLVTEVRGMQEAPEAILSKAVEIEEQTKRLLEGMELIVSQVHPETKENEIYPVWSGLPSLQMADEESRLSAYYNLLHCLRRDSHKIDNYLKLLKCRIIHNNNC",Ki67+/C-peptide+ cells,SC-β cells [3],0.39±0.08%
"Activin A: growth factor from the TGF-β superfamily (protein, UniProt P08476 311-426, looked up, Inhibin beta A chain, growth factor from the TGF-β superfamily) Inhibin beta A chain: GLECDGKVNICCKKQFFVSFKDIGWNDWIIAPSGYHANYCEGECPSHIAGTSGSSLSFHSTVINHYRMRGHSPFANLKSCCVPTKLRPMSMLYYDDGQNIIKKDIQNMIVEECGCS",cell survival,cells in Steps 3-6,improve cell survival
